In patent US5707817A, “Carbohydrate-based vaccine and diagnostic reagent for trichinosis” (Colorado State University Research Foundation, priority 1995, dated 1998):
Read-outs that look alike come from different tables or passages of the source.

Tests used:
[1] = system: binding of Tsp 130 antibody to TSL-1 antigen; assay: Competition ELISA: disaccharide inhibition of Tsp 130 antibody binding to TSL-1 antigen (Example 5); parameters: species or system T. spiralis; details: for inhibition of binding of Tsp 130 antibody to TSL-1 antigen: about 500 μg/ml; for relative affinity of Tsp 130 binding: in words, Example 5
Procedure: (§1) Monoclonal antibody Tsp 130 was prepared as described in Denkers et al. (J. Immunol. 144:3152-3159, 1990). TSL-1 antigens were prepared from muscle stage larvae by affinity purification using a Tsp 130 antibody preparation and methods as described in Denkers et al., J. Immunol., ibid., and Denkers et al., Mol. Biochem. Parasitol., ibid.
(§2) Wells in an ELISA plate were coated with TSL-1 antigens as follows. A 96-well Immunlon II ELISA plate, available from Dynatech Laboratories, Chantilly, Va., was coated with about 100 μl/well of a solution containing about 15 ng of TSL-1 antigens per 100 μl carbonate buffer at pH 9.6, overnight, at about 4° C. Following the overnight incubation, the TSL-1 antigen-containing solution was discarded from the wells of the ELISA plate. No wash was performed. The wells of the ELISA plate were then filled to the top with about 10% dry milk in phosphate buffered saline and allowed to incubate for about 1 hour at room temperature. Following the 1 hour incubation, the milk solution was discarded from the wells. No wash was performed.
(§3) Samples in which Tsp-130 monoclonal antibodies and disaccharides, as listed below, were pre-incubated prior to addition to the treated ELISA plate were prepared as follows. One thousand-fold serial dilutions of the following disaccharides, ranging from about 1×10^-6 fg/ml to about 1 mg/ml, were prepared in water: (a) α-tyvelose(1,3)β-d-N-acetylgalactosamine (also referred to herein as α-tyv-GalNAc); (b) β-tyvelose(1,3)β-d-N-acetylgalactosamine (also referred to herein as β-tyv-GalNAc); and (c) α-glucoseα-D-glucose (also referred to herein as α-glc-glc, or trehalose). The disaccharide-containing serial dilutions were then mixed with an about 1:6,400 dilution of Tsp 130 antibody at an about 1:1 (v:v) ratio. The samples were incubated for overnight at about 4° C.
(§4) About 100 μl of the pre-incubation samples were added in triplicate to wells in the milk-coated ELISA plate. The plate was incubated for about 1 hour at room temperature to allow any unbound Tsp 130 antibody in each sample to bind to TSL-1 antigen coated onto the ELISA plate. The plate was then washed 3 times with water.
(§5) The amount of Tsp 130 antibody that bound to TSL-1 antigen coated onto the ELISA plate was determined using the following method. About 100 μl of an about 1:8,000 dilution of horse radish peroxidase-conjugated goat anti-mouse IgG antibody (available from Kirkegaard & Perry Laboratories, Inc., Gaithersburg, Md.) was added to each well of the ELISA plate. The plate was then incubated for about 45 minutes at room temperature. Following incubation, the plate was washed 5 times with 0.05% Tween 20 in phosphate-buffered saline (PBS). The peroxidase-conjugated antibodies which bound to Tsp 130 antibody in the wells were then detected by (a) adding 100 μl/well of 3,3',5,5'-tetramethylbenzidine mixed 1:1 (v:v) with 0.02% hydrogen peroxide in a citric acid buffer (i.e., TMB Microwell Peroxidase Substrate System available from Kirkegaard & Perry) and (b) incubating the plate for about 5 minutes at room temperature. The color reaction was stopped by adding about 100 μl/well of 1M o-phosphoric acid. The color reaction was quantitated using a Microplate Reader #7520, available from Cambridge Technology, Inc., Watertown, Mass. at a wavelength of 450 nm.

[2] = system: Tsp 130 binding to the crude T. spiralis muscle stage larval lysate E11.5; assay: Competitive inhibition assay: disaccharide inhibition of Tsp 130 binding to crude muscle stage larval lysate E11.5 (Example 7); details: for inhibition of Tsp 130 binding to E11.5 lysate: about 500 μg/ml
Procedure: as §3, §4, §5
Monoclonal antibody Tsp 130 was prepared as described in Example 5. A crude muscle larval lysate of T. spiralis, referred to herein as E11.5, was prepared according to the method as described in Reason et al., ibid.
An Immunlon II ELISA plate coated with E11.5 lysate was prepared using the method described in Example 5 with the variation that wells in the plate were coated with about 100 μl/well of a solution containing about 250 ng of E11.5 lysate per 100 μl carbonate buffer at pH 9.6. […]

[3] = system: binding of Tsp 130 antibody to T. spiralis TSL-1 antigens and E11.5 lysate
[4] = system: Tsp 130 binding to TSL-1 antigen; assay: Competitive inhibition assay: disaccharide inhibition of Tsp 130 binding to TSL-1 antigen (Example 6); parameters: species or system T. spiralis
Procedure: as §1, §2, §3
About 100 μl of the pre-incubation samples were added in triplicate to wells in the milk-coated ELISA plate. The plate was incubated for about 1 hour at room temperature to allow any unbound Tsp 130 antibody in each sample to bind to TSL-1 antigen coated onto the ELISA plate. […]
The amount of Tsp 130 antibody that bound to TSL-1 antigen coated onto the ELISA plate was determined using the following method. […] The peroxidase-conjugated antibodies which bound to Tsp 130 antibody in the wells were then detected by (a) adding 100 μl/well of 3,3',5,5'-tetramethylbenzidine mixed 1:1 (v:v) with 0.02% hydrogen peroxide in a citric acid buffer (i.e., TMB Microwell Peroxidase Substrate System available from Kirkegaard & Perry) and (b) incubating the plate for about 5 minutes at room temperature. […] The color reaction was quantitated using a Microplate Reader #7520, available from Cambridge Technology, Inc., Watertown, Mass. at a wavelength of 450 nm. […]

| Compound | inhibition of binding of Tsp 130 antibody to TSL-1 antigen [1] | relative affinity of Tsp 130 binding [1] | inhibition of Tsp 130 binding to E11.5 lysate [2] | inhibition of Tsp 130 binding to TSL-1 antigen ([4]; about 1 mg/ml) | further results |
| --- | --- | --- | --- | --- | --- |
| OC[C@H]1O[C@H](O[C@H]2O[C@H](CO)[C@@H](O)[C@H](O)[C@H]2O)[C@H](O)[C@@H](O)[C@@H]1O [α-glc-glc, α-glucoseα-D-glucose, reference compound] | about 30% | even weaker | about 7% | – | – |
| β-3,6-dideoxy-D-arabinohexose [β-tyvelose] | – | – | – | – | competitive inhibition of Tsp 130 antibody binding, comparison ([3]; in words, Examples 5 through 7): better than α-tyvelose and even better than α-glc-glc |
| CC(=O)N[C@@H]1[C@@H](O[C@H]2O[C@H](C)[C@@H](O)C[C@@H]2O)[C@@H](O)[C@@H](CO)O[C@H]1O [α-tyv-GalNAc, α-tyvelose(1,3)β-d-N-acetylgalactosamine] | about 50% | – | about 28% | about 74% | – |
| C[C@H]1O[C@H](O)[C@@H](O)C[C@@H]1O [α-tyvelose] | – | – | – | – | competitive inhibition of Tsp 130 antibody binding, comparison [3]: able to competitively inhibit Tsp 130 antibody binding to TSL-1 antigen but at a higher concentration than β-tyvelose |
| CC(=O)N[C@@H]1[C@@H](O[C@@H]2O[C@H](C)[C@@H](O)C[C@@H]2O)[C@@H](O)[C@@H](CO)O[C@H]1O [β-tyv-GalNAc, β-tyvelose(1,3)β-d-N-acetylgalactosamine] | about 100% | higher affinity than to α-tyv-GalNAc | about 97% | about 97% | relative affinity of Tsp 130 binding ([2]; in words, Example 7): higher affinity than to α-tyv-GalNAc or to α-glc-glc; inhibition of Tsp 130 binding to TSL-1 antigen ([4]; about 100 μg/ml): about 92%; relative affinity of Tsp 130 binding ([4]; in words, Example 6): higher affinity than to α-tyv-GalNAc |
